Article PMC11358443, “Polymodal K^+ channel modulation contributes to dual analgesic and anti-inflammatory actions of traditional botanical medicines” (Communications Biology, 2024)
Values joined by “and” are separate entries in the source; they are usually repeats but may differ in a detail not shown here. Equal values may be shown once.

Experiments:
[1] = molecular target: Kv1.1 (Homo sapiens, UniProt Q09470); set-up: method as in PMID 33093824; conditions: cited from earlier work
[2] = molecular target: native Kv1.3 current in activated human T-cells (Homo sapiens, UniProt P22001); assay: Patch-clamp of native Kv1.3 current in activated human T-cells; type: cell-based; conditions: approximation, underestimate of potency (saturation incomplete); read-out: IC50 for human T-cell Kv1.3 current
Sequence of native Kv1.3 current in activated human T-cells (P22001 whole entry): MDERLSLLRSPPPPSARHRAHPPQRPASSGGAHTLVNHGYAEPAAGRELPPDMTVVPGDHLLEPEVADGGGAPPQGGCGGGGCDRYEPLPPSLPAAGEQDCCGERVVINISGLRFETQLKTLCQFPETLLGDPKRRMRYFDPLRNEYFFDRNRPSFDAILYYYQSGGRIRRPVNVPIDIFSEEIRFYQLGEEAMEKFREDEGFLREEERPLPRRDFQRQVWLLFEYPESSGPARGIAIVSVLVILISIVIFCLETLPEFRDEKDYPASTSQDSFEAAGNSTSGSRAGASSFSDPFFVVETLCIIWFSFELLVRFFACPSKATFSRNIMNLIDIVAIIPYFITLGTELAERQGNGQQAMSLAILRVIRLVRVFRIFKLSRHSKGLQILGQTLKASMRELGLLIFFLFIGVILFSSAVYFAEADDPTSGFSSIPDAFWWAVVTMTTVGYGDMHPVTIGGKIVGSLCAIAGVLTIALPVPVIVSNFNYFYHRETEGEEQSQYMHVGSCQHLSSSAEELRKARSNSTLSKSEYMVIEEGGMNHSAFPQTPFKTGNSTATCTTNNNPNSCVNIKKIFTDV
Description: Human CD4+ T cells from frozen PBMCs ([sequence] Technologies) were isolated with EasySep negative isolation kit ([sequence] Technologies, cat. #17952) according to manufacturers’ protocols. After isolation cells were plated on anti-CD3 (BioLegend, clone OKT3, 2.5 μg/ml), anti-CD28 (BioLegend, clone CD28.2, 2.5 μg/ml)-coated 6-well plate dish at 1.5 × 10^6 cells/well in 3 ml RPMI medium (Gibco) supplemented with 10% FBS (Omega Scientific), 1% L-glutamine (Gibco), 1% non-essential amino acids (Gibco), 1% sodium pyruvate (Gibco), 1% penicillin–streptomycin–amphotericin B (Gibco) and 50 µM, β-mercaptoethanol (Sigma), 30 U/ml recombinant human IL-2 (BioLegend, cat. #589102). Cells were incubated during 48–144 h in 5% CO2 + 95% O2 atmosphere at 37 °C, harvested and plated on poly-lysine coated coverslips; 30–60 min later cells were used in the experiment.
We performed patch clamp experiments at 20–23 °C, acquiring data with an EPC9 patch clamp amplifier (HEKA), a 5 kHz sampling rate and digitally filtering at 1–2 kHz. […] The Kv1.3 currents were recorded in response to 600 ms step pulse from holding potential −80 mV to +40 mV acquired every 30 s. […] The recorded currents were analyzed with Patch Master (HEKA Electronics) and Origin Pro (Origin Lab).

[3] = test system: human CD4 T cells; assay: Human CD4 T cell proliferation assay (CFSE dilution, viability dye); type: cell-based; conditions: 96 h
Source text: Whole blood from de-identified healthy donors, from whom informed consent was obtained, was obtained from the Institute for Clinical and Translational Science (ICTS) research Blood Donor Program at the University of California, Irvine approved and reviewed by the Institutional Review Boards of UCI (IRB protocol HS #2001-2058). All ethical regulations relevant to human research participants were followed. Peripheral blood mononuclear cells (PBMC) were isolated by density gradient separation using lymphocyte separation media (Corning, Cat# 25-072-CV) and SepMate tubes (STEMCELL Technologies, Cat# 85450). Blood was first diluted (1:3) in phosphate-buffered saline (PBS) containing 2% fetal bovine serum (FPS), then overlaid on top of lymphocyte separation media (2:1). CD4+ T cells were isolated from PBMCs using magnetic separation (EasySep Human CD4+ T cell isolation kit, STEMCELL Technologies, Cat# 17952), post isolation purity is typically >95% based on CD4 and CD3 staining. Purified CD4^+ T cells were labeled with 1.6 µM of CellTrace CFSE in AIM V Serum-Free Medium (Gibco Cat# 12055-083) for 8 min[84]. CFSE labeled CD4 T cells were stimulated with anti-CD3- and anti-CD28-coated Dynabeads (Thermo Fisher Scientific, Cat# 111310) at 1:1 ratio in a round-bottom 96-well plate at 37 °C and 5% CO2 in the dark for 96 h in T cell culture medium (RPMI with 10% FCS, L-glutamine, non-essential amino acids, sodium pyruvate, β-mercaptoethanol and penn–strep with amphotericin B). On day 4 cells were stained with Fixable Viability Dye eFluor 780 (FVD-780, Thermo Fisher Scientific, Cat# 65-0865-14) in PBS for 20 min at 4 °C to identify dead cells. Cells were then washed with 1× PBS + 1% FBS twice and transferred to a round-bottom 96-deep well plate (Greiner, Cat# 07-000-119) for flow cytometry. Fluorescence intensity data were acquired using NovoCyte Quanteon (Agilent Technologies) flow cytometer. FSC files were used for gating and analysis using FlowJo analysis software (FlowJo LLC, Ashland, OR). […]

[4] = molecular target: Kv7.5 (Homo sapiens, UniProt Q9NR82); set-up: method as in PMID 35997997; conditions: 100 µM; at −80 mV; cited from earlier work
Sequence of Kv7.5 (Q9NR82 whole entry): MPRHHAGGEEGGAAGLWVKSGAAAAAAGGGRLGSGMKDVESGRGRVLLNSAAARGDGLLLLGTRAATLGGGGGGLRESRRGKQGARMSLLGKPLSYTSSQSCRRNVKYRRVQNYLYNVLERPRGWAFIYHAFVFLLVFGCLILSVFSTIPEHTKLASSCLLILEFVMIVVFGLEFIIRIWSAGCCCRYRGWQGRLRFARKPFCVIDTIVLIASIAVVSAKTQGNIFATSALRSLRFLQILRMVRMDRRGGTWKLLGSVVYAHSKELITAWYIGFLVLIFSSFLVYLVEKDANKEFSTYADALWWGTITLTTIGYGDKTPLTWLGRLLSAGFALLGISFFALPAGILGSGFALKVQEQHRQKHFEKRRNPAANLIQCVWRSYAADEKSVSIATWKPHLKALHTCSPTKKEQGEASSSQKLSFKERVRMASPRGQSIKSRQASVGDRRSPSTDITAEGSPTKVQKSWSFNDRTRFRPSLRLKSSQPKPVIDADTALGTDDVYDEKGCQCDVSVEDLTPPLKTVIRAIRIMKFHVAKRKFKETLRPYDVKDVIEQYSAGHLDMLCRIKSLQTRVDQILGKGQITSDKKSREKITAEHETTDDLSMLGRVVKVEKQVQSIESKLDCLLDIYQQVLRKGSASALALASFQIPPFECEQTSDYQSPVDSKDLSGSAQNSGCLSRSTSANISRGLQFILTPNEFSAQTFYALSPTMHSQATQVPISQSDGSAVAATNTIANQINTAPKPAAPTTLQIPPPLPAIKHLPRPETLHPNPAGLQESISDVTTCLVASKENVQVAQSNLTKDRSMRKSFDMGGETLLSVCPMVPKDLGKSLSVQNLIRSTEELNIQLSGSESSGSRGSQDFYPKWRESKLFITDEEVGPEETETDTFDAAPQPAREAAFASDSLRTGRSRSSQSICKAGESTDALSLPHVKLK

[5] = molecular target: human Kv1.3 (Homo sapiens, UniProt P22001); assay: TEVC electrophysiology, Xenopus oocytes expressing Kv1.3; type: cell-based; conditions: for effect of 160 mM [K+]O on Kv1.3 inhibition: versus 4 mM [K+]O
Sequence of human Kv1.3 (P22001 whole entry): as the sequence (P22001 whole entry) above
Description: We generated human potassium channel cRNA transcripts with the mMessage mMachine kit (Thermo Fisher Scientific, Waltham, MA, USA) according to manufacturer’s instructions, after vector linearization, from cDNA sub-cloned into expression vectors (pTLNx, pXOOM and pMAX). We injected Xenopus laevis oocytes (Xenoocyte, Dexter, MI, USA) with the channel cRNAs (0.5–10 ng) and incubated the oocytes at 16 °C for 1–4 days prior to electrophysiological recording.
We performed TEVC at 20–23 °C with an OC-725C amplifier (Warner Instruments, Hamden, CT, USA) and pClamp10 software. Chemicals for recording and oocyte storage solutions were from Sigma-Aldrich (St. Louis, MO). Bath solution contained (in mM): 96 NaCl, 4 KCl, 1 MgCl2, 1 CaCl2, 10 HEPES (pH 7.6). Pipettes were 1–2 MΩ resistance when filled with 3 M KCl. We recorded currents in response to voltage pulses between −120 mV or −80 mV and +40 mV at 10 mV intervals from a holding potential of −80 mV, to yield current–voltage relationships and examine activation kinetics. We recorded and analyzed data using Clampfit (Molecular Devices, Sunnyvale, CA, USA) and Graphpad Prism software (GraphPad, San Diego, CA, USA), stating values as mean ± SEM. We calculated the voltage dependence of activation (V0.5) by measuring tail currents at a voltage pulse of −30 mV (Kv7) or −50 mV (Kv1), then fitted the tail current/voltage relationship with a single Boltzmann function:1 g=(A1−A2)/{1+exp[V1/2−V/Vs]}y+A2 where g is the normalized tail conductance, A1 is the initial value at −∞, A2 is the final value at +∞, V1/2 is the half-maximal voltage of activation and Vs the slope factor. We fitted activation and deactivation kinetics with single exponential functions.
For wild-type and mutant Kv1.3 channels we calculated conductance–voltage curves from current–voltage relationships recorded in response to voltage pulses between −80 mV to +40 mV in 10 mV intervals from a holding potential of −80 mV. The conductance was calculated by subtracting the driving force (EK):2 Ek=xlnK^+i/K^+o

Sequence of Kv1.1 (Q09470 whole entry): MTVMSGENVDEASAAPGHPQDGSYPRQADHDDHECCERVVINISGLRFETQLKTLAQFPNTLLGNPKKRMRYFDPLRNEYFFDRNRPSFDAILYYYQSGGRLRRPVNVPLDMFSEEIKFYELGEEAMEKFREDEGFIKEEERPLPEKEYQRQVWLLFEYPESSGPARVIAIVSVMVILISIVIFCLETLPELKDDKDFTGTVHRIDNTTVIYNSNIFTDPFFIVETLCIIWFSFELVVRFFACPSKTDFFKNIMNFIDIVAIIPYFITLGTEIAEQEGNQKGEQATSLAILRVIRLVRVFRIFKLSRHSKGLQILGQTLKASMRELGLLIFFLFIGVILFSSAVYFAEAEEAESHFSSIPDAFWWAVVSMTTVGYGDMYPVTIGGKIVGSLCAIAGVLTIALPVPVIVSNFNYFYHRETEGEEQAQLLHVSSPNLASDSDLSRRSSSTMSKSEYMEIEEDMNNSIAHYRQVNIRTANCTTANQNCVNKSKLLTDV

## tannic acid
[1]
  effect on voltage dependence of Kv1.1: negative-shift
[2]
  IC50: 3.3 ± 0.2 µM
[3]; mean of 9 donors
  LD50 (viability dose–response): 87 µM
[3]; CD3/CD28 Dynabead stimulation, 10% FCS
  IC50 for limiting T cell proliferation (division index): 35 µM and 35.03 µM
[3]; at 50 µM
  cell viability: 76.96 ± 8.922%
[4]
  constitutive activation for Kv7.5: 50%
[5]; 0.1 µM tannic acid, control 1.99 ± 0.28
  Current at 0 (mV): 2.39 ± 0.41
[5]; 0.1 µM tannic acid, control 4.86 ± 0.31
  Slope: 4.70 ± 0.45 mV
[5]; 0.1 µM tannic acid, control -27.75 ± 1.03
  V0.5 Normalized tail current: -27.80 ± 2.36 mV
[5]; 1 µM tannic acid
  Current at 0 (mV): 2.23 ± 0.35
  Slope: 4.73 ± 0.52 mV
  V0.5 Normalized tail current: -28.17 ± 3.08 mV
[5]; 3 µM tannic acid
  Current at 0 (mV): 1.96 ± 0.31
  Slope: 5.21 ± 0.43 mV
  V0.5 Normalized tail current: -28.73 ± 3.31 mV
[5]; 10 µM tannic acid
  Current at 0 (mV): 1.09 ± 0.25
  Slope: 7.44 ± 0.95 mV
  V0.5 Normalized tail current: -25.49 ± 4.06 mV
[5]; 30 µM tannic acid
  Current at 0 (mV): 0.72 ± 0.27
  Slope: 10.91 ± 2.27 mV
  V0.5 Normalized tail current: -19.06 ± 4.68 mV
  effect of 160 mM [K+]O on Kv1.3 inhibition: abolished inhibition
[5]; 30 µM tannic acid, 2 s depolarizing pulses every 60 s (6 pulses)
  time to steady-state block: 300 ms
[5]; 30 µM tannic acid, 200-ms depolarizing pulses every 60 s (13 pulses)
  time to steady-state block: 700 ms
[5]; 100 µM tannic acid
  Current at 0 (mV): 0.32 ± 0.08
  Slope: 15.18 ± 2.02 mV
  V0.5 Normalized tail current: -9.91 ± 3.45 mV
  effect of 160 mM [K+]O on Kv1.3 inhibition: significantly reduced the efficacy
[5]; prepulse current, read-out: IC50 for Kv1.3 inhibition in oocytes
  IC50: 12 ± 1.3 µM
[5]; unclamped oocytes
  concentrations that depolarized the EM of oocytes expressing Kv1.3: above 10 µM
